According to US12285448B2, “Bifidobacterium breve capable of relieving rheumatoid arthritis and application thereof” (Jiangnan University, priority 2020, dated 2025):

Key:
Format in all cases: in vivo, Wistar rats
[1] = system: rats with rheumatoid arthritis (type II collagen-induced arthritis model); experiment: Body weight, joint thickness and clinical score of rats with type II collagen-induced arthritis; conditions: CIA rats
Description: A Type II Collagen-induced arthritis (CIA) model is a classic RA animal model. The onset of CIA has many similarities with rheumatoid arthritis (RA), such as synovial hyperplasia, pannus formation, and cartilage destruction. At present, […]. Therefore, in Examples 5-9, a type II collagen-induced arthritis (CIA) model was used as an RA animal model, and LGG was used as a control.
(§1) MRS liquid media (containing 0.05 g/100 mL cysteine) were respectively inoculated with the B. breve CCFM1078 obtained in Example 1 and LGG and anaerobically cultured at 37° C. for 18 h, and then transferred into fresh MRS liquid media (containing 0.05 g/100 mL cysteine) and cultured at same conditions for 24 h. Bacteria were centrifuged at 6000 g for 15 min, washed with 0.9 g/100 mL normal saline, and centrifuged again at 6000 g for 10 min to obtain the bacteria. The bacteria of the B. breve CCFM1078 and the LGG were resuspended to a cell concentration of 5×10^9 CFU/mL with sterile normal saline with a concentration of 0.9 g/100 mL, and bacterial solutions containing the B. breve CCFM1078 and the LGG were obtained.
60 7-week-old SPF (Specific Pathogen Free) female Wistar rats were raised at a room temperature of 22-24° C., a humidity of 40-60%, and an alternation of 12 h/12 h day and night. […]

IL-10 = experiment: Level of IL-10 in the serum of rats with rheumatoid arthritis (ELISA); conditions: four weeks after booster immunization; model group 1.64 ng/L, normal group 1.59 ng/L
Description: as §1
Sixty 7-week-old SPF (Specific Pathogen Free) female Wistar rats were raised at a room temperature of 22-24° C., a humidity of 40-60%, and an alternation of 12 h/12 h day and night. After being raised for 1 week under the condition of ad libitum, the rats were randomly divided into 5 groups with 12 rats in each group. […]
Four weeks after the booster immunization, blood was collected and the rats were sacrificed. The rat serum was collected, and the level of IL-10 in the serum of the rats in each group were determined by an ELISA kit.

Th17 cells = experiment: Proportion of Th17 cells in the mesenteric lymph nodes of rats with rheumatoid arthritis (flow cytometry); conditions: four weeks after booster immunization; model group 13.97 times the normal group
Description: as §1
(§2) Sixty 7-week-old SPF (Specific Pathogen Free) female Wistar rats were raised at a room temperature of 22-24° C., a humidity of 40-60%, and an alternation of 12 h/12 h day and night. After being raised for 1 week under the condition of ad libitum, the rats were randomly divided into 5 groups with 12 rats in each group. The 5 groups were a normal group, a model group, a drug group administered with methotrexate by gavage, an LGG group administered with LGG by gavage, and a CCFM1078 group administered with B. breve CCFM1078 by gavage.
The experiment was started after the rats were adaptively raised for one week, and lasted for eight weeks. […]

TNFα = experiment: Level of TNFα in the serum of rats with rheumatoid arthritis (ELISA); conditions: four weeks after booster immunization; model group 14 ng/L, normal group 9.8 ng/L
Description: as §1
(§3) 60 7-week-old SPF (Specific Pathogen Free) female Wistar rats were raised at a room temperature of 22-24° C., a humidity of 40-60%, and an alternation of 12 h/12 h day and night. After being raised for 1 week under the condition of ad libitum, the rats were randomly divided into 5 groups with 12 rats in each group. […]
(§4) Four weeks after the booster immunization, blood was collected and the rats were sacrificed. The rat serum was collected, and the levels of IL-1β and TNFα in the serum of the rats in each group were determined by an ELISA kit.

IL-1β = experiment: Level of IL-1β in the serum of rats with rheumatoid arthritis (ELISA); conditions: four weeks after booster immunization; model group 835 ng/L, normal group 143 ng/L
Description: as §1, §3, §4

[2] = Content of short-chain fatty acids in the feces of rats with rheumatoid arthritis (GCMS); conditions: four weeks after booster immunization
Description: as §1, §2
The experiment was started after the rats were adaptively raised for one week, and lasted for eight weeks. During the two weeks before modelling, each rat in the normal group, the drug group and the model group was administered by gavage with 1.5 mL of sterile normal saline with a concentration of 0.9 g/100 mL per day, each rat in the LGG group was administered by gavage with 1.5 mL of an LGG bacterial solution with a concentration of 5×10^9 CFU/mL per day, and each rat in the CCFM1078 group was administered by gavage with 1.5 mL of a B. breve CCFM1078 bacterial solution with a concentration of 5×10^9 CFU/mL per day. The third week to the fourth week was a modelling period. On the first day of modelling, a bovine type II collagen solution (Chondrex, 20022) and a Freund's incomplete adjuvant (Chondrex, 7002) were mixed in equal volumes and emulsified to form a complete emulsion (the emulsion was prepared for immediate use, and the prepared emulsion was used within 1 h). A rat was anesthetized with isoflurane and immobilized, the whole rat tail root was disinfected with 75% (v/v) alcohol, and then the rat was subjected to primary immunization. In the primary immunization, 0.15 mL of the complete emulsion was accurately pipetted and injected subcutaneously at 1.5 cm from the tail root of the rat. One week later, booster immunization was conducted by the same treatment method, that is, 0.15 mL of the complete emulsion was accurately pipetted and injected subcutaneously at 2.0 cm from the tail root of the rat. The rats in the normal group were injected with only the same volume of sterile normal saline by the same method. […]

Q: For `CN(Cc1cnc2nc(N)nc(N)c2n1)c1ccc(C(=O)N[C@@H](CCC(=O)O)C(=O)O)cc1` [methotrexate, Methotrexate], which “paw thickness (comparison in words)” value ([1]; FIG. 3) is on record?
A: significantly lower than that of the rats in the model group and restored to normal in the last week

Q: And the “body weight change (trend)” value ([1]; gavage, after booster immunization, FIG. 2)?
A: not significant

Q: What about the “concentration of IL-10 in the serum” value (IL-10) of the same molecule?
A: 1.62 ng/L

Q: And the “proportion of Th17 cells in the mesenteric lymph nodes relative to the model group” value (Th17 cells)?
A: 12.7%

Q: What about the “level of TNFα in the serum” value (TNFα) of the same molecule?
A: 12 ng/L

Q: What about the “level of IL-1β in the serum” value (IL-1β) of the same molecule?
A: 159 ng/L

Q: And the “content of acetic acid in the feces relative to the model group” value [2]?
A: 1.1 times

Q: And the “content of butyric acid in the feces relative to the model group” value [2]?
A: 1.3 times

Q: What about the “content of isobutyric acid in the feces relative to the model group” value [2] of the same molecule?
A: 1.3 times

Q: What about the “content of pentanoic acid in the feces relative to the model group” value [2] of the same molecule?
A: 1 times

Q: What about the “content of propionic acid in the feces relative to the model group” value [2] of the same molecule?
A: 1.2 times
